The test system of series [1] is MCF-7TAX cells. Type of series: cell-based. The note with it: for resistance factor (IC50 for MCF-7TAX cells divided by IC50 for MCF-7 cells): 24 h drug treatment, clonogenic assay. From the text: (§1) Twice weekly, nonadherent (dead) cells were removed by discarding the existing medium and replacing it with fresh, drug-containing medium. […] At the end of the two-week period, all remaining viable cells were released by trypsinization, diluted 10-fold into PBS, and harvested by centrifugation. The cells were resuspended in fresh H-21 medium, with several aliquots removed for storage and future analysis. […] Nonadherent dead cells were again removed as described above and the process repeated until a drug dose was reached where all cells in the population were killed. Cells that grew at the maximally-tolerated drug concentrations were deemed to be “terminally selected”.
(§2) Thus, the concentration of valspodar used in some experiments was increased to 10 μM.
(§3) Briefly, 5 ml of H21 medium with 10% fetal bovine serum was introduced into 12 tissue culture flasks (25 cm^2 area) and each flask seeded with 2.5×10^5 cells. […] Each sample was vortexed vigorously for 10 s to ensure even distribution of cells within the viscous medium. 1.2 ml of each cellular suspension were placed into 6 well plates and incubated for a minimum of one week at 37° C./5% CO2 until large colonies of cells were visible.

Series [2] relates to MCF-7 cells. Nature of the series: Clonogenic assay, drug-sensitive parental cells. The note with it: for IC50: Homo sapiens.
Series [3] deals with MCF-7DOX cells. Type of series: cell-based. The following applies: for resistance factor (IC50 for MCF-7DOX cells divided by IC50 for MCF-7 cells): 24 h drug treatment, clonogenic assay.
Text: as §1, §2, §3

For series [4], the system named is MCF-7DOX cells. Nature of the series: Cellular doxorubicin uptake by flow cytometry. The note with it: 2 μM doxorubicin, steady state.
Series [5] concerns MCF-7 cells. Nature of the series: Selection of MCF-7 cells in increasing drug concentrations (maximally tolerated dose). Type of series: cell-based, human. The note with it: 3-fold dose steps, terminally selected. On the procedure: Twice weekly, nonadherent (dead) cells were removed by discarding the existing medium and replacing it with fresh, drug-containing medium. […] At the end of the two-week period, all remaining viable cells were released by trypsinization, diluted 10-fold into PBS, and harvested by centrifugation. The cells were resuspended in fresh H-21 medium, with several aliquots removed for storage and future analysis. The remaining cells were incubated with drug at a concentration 3-fold higher than the previous dose. Nonadherent dead cells were again removed as described above and the process repeated until a drug dose was reached where all cells in the population were killed. Cells that grew at the maximally-tolerated drug concentrations were deemed to be “terminally selected”. The maximally-tolerated drug doses during the selection process were 0.3 μM and 6.6 nM for doxorubicin and paclitaxel, respectively.

The test system of series [6] is procaspase-9. Nature of the series: Doxorubicin treatment of PA1 ovarian cell line, procaspase-9 level. Type of series: cell-based. The following applies: PA1 cells.
The test system of series [7] is MCF-7TAX cells. The note with it: 2 μM doxorubicin.
Series [8] deals with procaspase-9. Nature of the series: Immunoblotting of whole cell extracts of MCF-7 cells after drug treatment. The note with it: 24 h, 9 nM doxorubicin or 0.56 nM paclitaxel. Type of series: cell-based, human. As to the method:
(§4) Extraction of proteins from whole cells was performed using RIPA buffer [1% Nonidet P-40, 0.5% sodium deoxycholate, 0.1% SDS, and 1 Complete™ protease inhibitor tablet (Roche Pharmaceuticals, Baie d'Urfe, QC) in 50 ml of PBS]. Prior to use, the RIPA buffer was supplemented with sodium orthovanadate and phenylmethylsulfonyl fluoride at final concentrations of 1 mM and 0.1 mg/ml, respectively. Cultured cells were grown as a monolayer and allowed to reach 70-90% confluence in 10 cm tissue culture plates. Twenty-four hours prior to extraction, some plates of cells were treated with 9 nM doxorubicin or 0.56 nM paclitaxel. After drug treatment, the medium was removed and the cells rinsed twice with PBS. All further steps were carried out on ice to minimize denaturation/proteolysis of the proteins. Chilled RIPA buffer (0.6 ml) was added to each plate, after which the cells were scraped from the plate using a Teflon tape-coated razor blade, and transferred to a 1.5 ml microfuge tube. An additional 0.3 ml of RIPA buffer was added to the plate and the resultant suspension was combined with the lysate. The sample was then passed repeatedly through a 21 gauge needle to lyse the cells and shear any DNA present. The lysates were then incubated on ice for 30 minutes, after which they were clarified by centrifugation at 15,000 g for 20 minutes at 4° C. The supernatants were then removed, mixed well, and aliquots placed in 0.5 ml microfuge tubes and stored at −80° C.
(§5) Proteins ([…]) from whole cell extracts were loaded into each lane of a 10% SDS-polyacrylamide gel, on duplicate gels. After electrophoresis, one of the gels was stained with Coomassie Brilliant Blue R to confirm that similar amounts of protein were loaded on gels. A second gel was electrophoretically transferred to a nitrocellulose membrane and the membrane incubated for one hour in blocking buffer [TBS buffer (20 mM Tris, 150 mM NaCl, pH 7.5) supplemented with 5% skim milk powder] to occupy all remaining protein-binding sites on the membrane. After blocking, the membranes were incubated for 1.5 hours at room temperature with an antibody to either caspase-3 (Santa Cruz Biotechnology, Santa Cruz, Calif., clone E-8), caspase-7 (Pharmingen Laboratories, San Diego, Calif., clone B94-1) or caspase-9 (Santa Cruz Biotechnology, Santa Cruz, Calif., clone C-17). Both antibodies were diluted 1:500 in blocking buffer containing 0.1% Tween 20. The primary antibody was then discarded and the membrane washed exhaustively with TBST (TBS buffer supplemented with 0.1% Tween 20). […]

Series [9] concerns procaspase-7. The description is as above. The note with it: 24 h drug treatment. Type of series: cell-based, human. As to the method: as §4, §5
Series [10] relates to MCF-7DOX cells. Nature of the series: [3H]-paclitaxel / [14C]-5-fluorouracil accumulation by liquid scintillation. The following applies: 10 nM paclitaxel, 24 hours.
Where [11] appears, read: MCF7, read-out: IC50 (uptake concentration near the IC50).
Setting [12] is: MCF7, read-out: concentration required to kill 50% of the cells (IC50).

Structures are written as SMILES. Values joined by “and” are separate entries in the source; they are usually repeats but may differ in a detail not shown here. Equal values may be shown once. Read-outs that look alike come from different tables or passages of the source.

In the case of `O=c1[nH]cc(F)c(=O)[nH]1` [5-fluorouracil], the “resistance factor (IC50 for MCF-7TAX cells divided by IC50 for MCF-7 cells)” value in [1] was found to be 13 fold. Besides, in [2] (setting [11]), the IC50 is roughly 1000 nM.
Regarding `N.N.[Cl][Pt][Cl]` [cisplatin], the “resistance factor (IC50 for MCF-7TAX cells divided by IC50 for MCF-7 cells)” value in series [1] is “Very little to no cross-resistance”.
In the case of `O=P1(N(CCCl)CCCl)NCCCO1` (stereo not shown) [cyclophosphamide], in [1], the “resistance factor (IC50 for MCF-7TAX cells divided by IC50 for MCF-7 cells)” value is given as “Very little to no cross-resistance”.
For the molecule `CC(=O)O[C@@]12CO[C@@H]1C[C@H](O)[C@@]1(C)C(=O)[C@H](O)C3=C(C)[C@@H](OC(=O)[C@H](O)[C@@H](NC(=O)OC(C)(C)C)c4ccccc4)C[C@@](O)([C@@H](OC(=O)c4ccccc4)[C@H]21)C3(C)C` [docetaxel], the “resistance factor (IC50 for MCF-7DOX cells divided by IC50 for MCF-7 cells)” value in [3] is reported as 14,600 fold. Also, the “resistance factor (IC50 for MCF-7TAX cells divided by IC50 for MCF-7 cells)” value in series [1] is recorded as 46 fold.
On to `COc1cccc2c1C(=O)c1c(O)c3c(c(O)c1C2=O)C[C@@](O)(C(=O)CO)C[C@@H]3O[C@H]1C[C@H](N)[C@H](O)[C@H](C)O1` [doxorubicin, Doxorubicin], for which the “reduction of doxorubicin accumulation compared to MCF-7 cells” value in series [4] stood at 91.4%. Moreover, the “resistance factor (IC50 for MCF-7DOX cells divided by IC50 for MCF-7 cells)” value in series [3] is reported as 52 fold. Moreover, the “maximally-tolerated drug dose during the selection process” value in [5] came to 0.3 µM. The entries for the “effect on procaspase-9 levels” value in series [6] and in series [8] were “decrease in procaspase-9 levels” and “elevated levels”, respectively. Further, the IC50 in series [2] (setting [12]) worked out at 9 nM. The “doxorubicin uptake as percent of uptake in MCF-7 cells” value in [7] is recorded as 68.6%. Also, in series [9], the “effect on procaspase-7 levels” value is on record as “upregulated”.
On to `COc1cccc2c1C(=O)c1c(O)c3c(c(O)c1C2=O)C[C@@](O)(C(=O)CO)C[C@@H]3O[C@H]1C[C@H](N)[C@@H](O)[C@H](C)O1` [epirubicin], for which the “resistance factor (IC50 for MCF-7DOX cells divided by IC50 for MCF-7 cells)” value in series [3] amounted to 124 fold. Moreover, in series [1], the “resistance factor (IC50 for MCF-7TAX cells divided by IC50 for MCF-7 cells)” value is recorded as roughly 13 fold.
On to `COc1cc([C@@H]2c3cc4c(cc3[C@@H](O[C@@H]3O[C@@H]5CO[C@@H](C)O[C@H]5[C@H](O)[C@H]3O)[C@H]3COC(=O)[C@H]23)OCO4)cc(OC)c1O` [etoposide], for which the “resistance factor (IC50 for MCF-7DOX cells divided by IC50 for MCF-7 cells)” value in series [3] was 31 fold. For the same molecule, the “resistance factor (IC50 for MCF-7TAX cells divided by IC50 for MCF-7 cells)” value in [1] is reported as “Very little to no cross-resistance”.
With `CCc1c2c(nc3ccc(OC(=O)N4CCC(N5CCCCC5)CC4)cc13)-c1cc3c(c(=O)n1C2)COC(=O)[C@]3(O)CC` [irinotecan], in series [1], the “resistance factor (IC50 for MCF-7TAX cells divided by IC50 for MCF-7 cells)” value is recorded as “Very little to no cross-resistance”.
For the molecule `CN(Cc1cnc2nc(N)nc(N)c2n1)c1ccc(C(=O)N[C@@H](CCC(=O)O)C(=O)O)cc1` [methotrexate], in [1], the “resistance factor (IC50 for MCF-7TAX cells divided by IC50 for MCF-7 cells)” value is reported as “Very little to no cross-resistance”.
In the case of `CC(=O)O[C@H]1C(=O)[C@@]2(C)[C@H]([C@H](OC(=O)c3ccccc3)[C@]3(O)C[C@H](OC(=O)[C@H](O)[C@@H](NC(=O)c4ccccc4)c4ccccc4)C(C)=C1C3(C)C)[C@]1(OC(C)=O)CO[C@@H]1C[C@@H]2O` [paclitaxel], the “resistance factor (IC50 for MCF-7DOX cells divided by IC50 for MCF-7 cells)” value in series [3] was 4,700 fold and > 4,000 fold. In addition, in series [1], the “resistance factor (IC50 for MCF-7TAX cells divided by IC50 for MCF-7 cells)” value amounted to 42 fold. Moreover, the “maximally-tolerated drug dose during the selection process” value in series [5] amounted to 0.0066 µM. Further, the IC50 was roughly 10 nM in series [2] (setting [11]) and 0.56 nM in series [2] (setting [12]). Besides, the “effect on procaspase-9 levels” value in [8] is listed as “no effect”. Besides, in series [9], the “effect on procaspase-7 levels” value is “without effect”. Further, the “paclitaxel accumulated as percent of that in MCF-7 cells” value in [10] is recorded as 2.5%.
As to `C/C=C/C[C@@H](C)C(=O)[C@H]1C(=O)N[C@@H](C(C)C)C(=O)N(C)CC(=O)N(C)[C@@H](CC(C)C)C(=O)N[C@@H](C(C)C)C(=O)N(C)[C@@H](CC(C)C)C(=O)N[C@@H](C)C(=O)N[C@H](C)C(=O)N(C)[C@@H](CC(C)C)C(=O)N(C)[C@@H](CC(C)C)C(=O)N(C)[C@@H](C(C)C)C(=O)N1C` [valspodar], the “concentration tolerated without resulting in cell killing” value in [3] (MCF-7DOX cells) and in [1] (MCF-7TAX cells) was “up to 10 μM” each time. Moreover, the “effect on 5-fluorouracil sensitivity” value in series [2] (MCF-7 cells) is recorded as “no effect”. Moreover, the “maximum amount which could be added without inducing significant cytotoxicity” value in series [2] (MCF-7 cells, one hour at 37° C.) was “Two”. The “effect on cell viability” value in [2] (non-expressing MCF-7 cells, 2 μM valspodar (data not shown)) is reported as “only a slight effect”.
Take `CC[C@]1(O)C[C@@H]2CN(CCc3c([nH]c4ccccc34)[C@@](C(=O)OC)(c3cc4c(cc3OC)N(C)[C@H]3[C@@](O)(C(=O)OC)[C@H](OC(C)=O)[C@]5(CC)C=CCN6CC[C@]43[C@@H]65)C2)C1` [vinblastine, Vinblastine]: the “resistance factor (IC50 for MCF-7DOX cells divided by IC50 for MCF-7 cells)” value in series [3] is recorded as “approximately 4600 fold”.

For the origin of these results see patent publication US7588903B2, “Use of isogenic drug-resistant cell lines to determine the sequence of chemotherapeutic drug treatment” (priority 2003, dated 2009).
